According to patent US20070036793A1, “Methods for use of an lkb1/strad7mo25 complex” (priority 2003, published 2007):

What was measured:
Conditions in all cases: 1 h
LKB1 = target: T1, LKB1 (Mus musculus, UniProt Q9WTK7); assay: Activity of endogenous LKB1 immunoprecipitated from LKB1+/+ MEFs, LKBtide substrate; assay type: cell-based
T1 construct: AMPKα1/a2 and LKB1 were immunoprecipitated from the cell lysates; endogenous in cells; host or cells: LKB1+/+ MEFs
Experimental: (§1) FIG. 28. […] (A) LKB1^+/+ MEFs were either left untreated or stimulated with the indicated concentrations of phenformin (Phen) for 1 h. AMPKα1/a2 and LKB1 were immunoprecipitated from the cell lysates, and in vitro kinase activity towards the AMARA and LKBtide peptides respectively, were measured as described in Materials and Methods (Example 4). (B) To confirm equal expression of the kinases in each sample, cell lysates were subjected to SDS-PAGE and western blot analysis with the indicated antibodies. The phospho pT172 antibody (P-AMPK) recognises the phosphorylated T-loop of AMPKα1. […] AMPKα1 and the indicated AMPK-related kinases were immunoprecipitated from the cell lysates, and in vitro kinase activity towards the AMARA peptide measured as described in Materials and Methods. […]
Cell culture, stimulation and cell lysis. […] Protein concentrations were determined by the Bradford method with bovine serum albumin as the standard (Bradford, 1976).
0.1-1 mg Hela or MEF cell lysate protein was incubated at 4° C. for 1 h on a shaking platform with 5 μl of protein G-Sepharose conjugated to 5 μg of human LKB1 antibody. […] The p81 membranes were washed in phosphoric acid, and the incorporated radioactivity was measured by scintillation counting as described previously for MAP kinase (Alessi et al., 1995).

AMPKα1 = target: T2, AMPKα1 (Mus musculus, UniProt Q5EG47); assay: AMPK activity and Thr172 phosphorylation in LKB1+/+ MEFs after drug stimulation; assay type: cell-based
T2 construct: AMPKα1 and AMPK-related kinases were immunoprecipitated from the cell lysates; endogenous in cells; host or cells: immortalised LKB1+/+ MEFs
T2 sequence (Q5EG47 whole entry): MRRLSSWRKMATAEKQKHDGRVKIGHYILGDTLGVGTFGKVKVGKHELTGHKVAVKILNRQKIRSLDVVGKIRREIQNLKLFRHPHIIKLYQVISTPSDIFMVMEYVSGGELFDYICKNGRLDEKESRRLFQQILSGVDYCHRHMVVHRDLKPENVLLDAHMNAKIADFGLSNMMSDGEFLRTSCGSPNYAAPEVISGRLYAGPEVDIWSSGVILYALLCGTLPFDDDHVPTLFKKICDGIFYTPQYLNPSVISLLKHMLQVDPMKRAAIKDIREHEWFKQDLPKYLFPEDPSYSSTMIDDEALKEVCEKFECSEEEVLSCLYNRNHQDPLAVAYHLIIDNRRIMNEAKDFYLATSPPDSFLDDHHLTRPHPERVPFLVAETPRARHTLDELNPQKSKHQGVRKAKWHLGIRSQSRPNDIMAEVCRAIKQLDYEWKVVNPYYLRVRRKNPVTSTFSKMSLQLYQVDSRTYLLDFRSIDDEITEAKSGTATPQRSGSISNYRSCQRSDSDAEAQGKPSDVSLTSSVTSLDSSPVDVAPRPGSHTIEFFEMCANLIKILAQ
T2 sequence (Q9R078 2-270 partner limits assumed): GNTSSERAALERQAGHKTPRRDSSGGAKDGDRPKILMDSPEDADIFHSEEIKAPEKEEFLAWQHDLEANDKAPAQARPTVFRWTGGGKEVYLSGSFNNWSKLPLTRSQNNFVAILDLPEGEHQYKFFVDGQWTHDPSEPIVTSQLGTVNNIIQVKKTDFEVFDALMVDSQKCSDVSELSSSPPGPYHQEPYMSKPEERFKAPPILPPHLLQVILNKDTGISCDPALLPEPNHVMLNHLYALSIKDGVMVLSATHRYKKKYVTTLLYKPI
T2 sequence (O54950 whole entry partner): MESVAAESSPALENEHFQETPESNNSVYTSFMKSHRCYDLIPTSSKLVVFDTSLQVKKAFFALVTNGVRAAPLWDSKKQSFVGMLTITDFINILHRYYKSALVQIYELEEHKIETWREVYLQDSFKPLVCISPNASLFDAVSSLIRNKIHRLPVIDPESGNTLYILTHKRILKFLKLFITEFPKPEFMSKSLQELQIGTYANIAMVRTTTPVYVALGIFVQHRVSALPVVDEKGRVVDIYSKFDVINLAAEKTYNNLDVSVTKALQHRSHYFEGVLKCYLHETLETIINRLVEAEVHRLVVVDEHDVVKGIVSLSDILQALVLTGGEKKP
Experimental: (§2) FIG. 27 Activity of AMPK-related kinases in LKB1+/+ and LKB1^−/− MEFs. LKB1^+/+ or LKB1^−/− MEFs were either left untreated (black bars) or stimulated with 10 mM phenformin (Phen, white bars) for 1 h. AMPKα1 and AMPK-related kinases were immunoprecipitated from the cell lysates, and in vitro kinase activity towards the AMARA peptide was measured as described in Materials and Methods (Example 4). To confirm equal expression of the kinases in each sample, cell lysates (AMPKα1, NUAK2, MARK2/3 and MARK4) or immunoprecipitated proteins (QIK, QSK, SIK and MARK1) were subjected to SDS-PAGE and western blot analysis. All AMPK-related kinases migrated with the expected molecular mass. In the case of AMPKα1, cell lysates were immunoblotted with a phospho Thr172 antibody (P-AMPK), that recognises the phosphorylated T-loop. A control immunoblot of LKB1 levels in cell lysates is also included in panel B. Results shown are average + SD of 2-4 assays and are representative of at least two independent experiments.
as §1, with “AMPKα1. Results are shown as the average ± SD for a triplicate assay and are representative of two independent experiments.” for “AMPKα1.”
(§3) Cell culture, stimulation and cell lysis. […] Protein concentrations were determined by the Bradford method with bovine serum albumin as the standard (Bradford, 1976). […]

[1] = test system: AMPK-related kinases (NUAK2, QIK, QSK, SIK, MARK1, MARK2/3, MARK4); assay: Activity of endogenous AMPK-related kinases immunoprecipitated from MEFs after drug stimulation; assay type: cell-based, mouse
Experimental: as §2, with “A control immunoblot of LKB1 levels in cell lysates is also included in panel B. Results shown are average + SD of 2-4 assays and are representative of at least two independent experiments.” left out
FIG. 28. […] AMPKα1/a2 and LKB1 were immunoprecipitated from the cell lysates, and in vitro kinase activity towards the AMARA and LKBtide peptides respectively, were measured as described in Materials and Methods (Example 4). […] AMPKα1 and the indicated AMPK-related kinases were immunoprecipitated from the cell lysates, and in vitro kinase activity towards the AMARA peptide measured as described in Materials and Methods. […]
as §3

T1 sequence (Q9WTK7 1-433 limits assumed): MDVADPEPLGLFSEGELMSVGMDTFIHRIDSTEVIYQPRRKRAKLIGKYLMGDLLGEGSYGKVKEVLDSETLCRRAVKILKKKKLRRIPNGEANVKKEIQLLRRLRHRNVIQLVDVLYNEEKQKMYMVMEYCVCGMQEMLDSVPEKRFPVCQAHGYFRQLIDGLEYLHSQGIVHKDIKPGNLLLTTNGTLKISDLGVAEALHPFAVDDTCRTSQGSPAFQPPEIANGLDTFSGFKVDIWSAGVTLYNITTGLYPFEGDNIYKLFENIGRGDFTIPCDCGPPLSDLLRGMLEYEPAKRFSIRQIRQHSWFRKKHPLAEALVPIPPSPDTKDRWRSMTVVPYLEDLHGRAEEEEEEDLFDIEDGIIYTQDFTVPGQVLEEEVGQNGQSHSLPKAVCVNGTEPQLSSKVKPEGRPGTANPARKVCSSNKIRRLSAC
T1 sequence (Q3UUJ4 whole entry partner): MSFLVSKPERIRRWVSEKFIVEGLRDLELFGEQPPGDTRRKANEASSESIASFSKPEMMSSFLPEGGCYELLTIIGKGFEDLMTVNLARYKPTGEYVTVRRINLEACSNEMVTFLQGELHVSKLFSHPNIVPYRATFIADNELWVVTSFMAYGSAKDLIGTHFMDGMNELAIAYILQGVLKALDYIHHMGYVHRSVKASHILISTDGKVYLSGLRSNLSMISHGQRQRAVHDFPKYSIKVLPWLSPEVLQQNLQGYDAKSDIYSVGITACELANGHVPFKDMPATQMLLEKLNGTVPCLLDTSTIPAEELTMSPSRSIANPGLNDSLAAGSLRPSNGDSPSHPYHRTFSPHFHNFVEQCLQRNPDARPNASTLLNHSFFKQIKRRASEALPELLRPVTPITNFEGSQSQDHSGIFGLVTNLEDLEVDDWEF
T1 sequence (Q06138 whole entry partner): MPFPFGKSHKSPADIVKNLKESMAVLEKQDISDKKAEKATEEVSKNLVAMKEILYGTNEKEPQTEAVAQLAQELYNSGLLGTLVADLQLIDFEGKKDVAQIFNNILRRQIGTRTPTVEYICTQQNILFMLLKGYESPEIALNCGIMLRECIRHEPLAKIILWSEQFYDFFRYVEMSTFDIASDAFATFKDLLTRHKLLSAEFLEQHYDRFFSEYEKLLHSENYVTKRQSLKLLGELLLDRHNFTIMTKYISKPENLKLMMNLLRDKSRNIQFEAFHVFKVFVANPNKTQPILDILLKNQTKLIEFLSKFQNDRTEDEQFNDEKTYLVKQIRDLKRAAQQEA

For `NC(=O)c1ncn([C@@H]2O[C@H](CO)[C@@H](O)[C@H]2O)c1N` [AICA riboside, 5-aminoimidazole-4-carboxamide (AICA) riboside], the LKB1 activity (LKB1) was “do not activate LKB1 directly”, the “activation of AMPK” value (AMPKα1; 2 mM AICA riboside) was “activated AMPK” and the “activity of AMPK-related kinases” value ([1]; LKB1+/+ MEFs, 2 mM AICA riboside) was “failed to markedly activate”.
In the case of `[H]/N=C(/N)N/C(=N/[H])NCCc1ccccc1` [phenformin], the LKB1 activity (LKB1) is reported as “did not stimulate LKB1 activity”, the “activation of AMPK” value (AMPKα1; increasing doses of phenformin) is reported as “progressively activated AMPK” and the “phosphorylation of Thr172 of AMPK” value (AMPKα1; increasing doses of phenformin) is reported as “increased the phosphorylation of Thr172”. For the same molecule, the “activity of AMPK-related kinases” value ([1]; MEFs, 10 mM phenformin) was “not significantly stimulated”.
